Measurements: US20240285612A1, “COMPOSITIONS COMPRISING AN AGONIST OF 5-HYDROXYTRYPTAMINE (5-HT) RECEPTOR SUBTYPE 3” (LDN Pharma Limited, priority 2021, published 2024)

Key:
[1] = test system: 5-HT receptor 3A (HTR3A), transcript variant 1 mRNA; test: Microarray gene expression of HTR3A transcript variant 1 mRNA in CD3+ lymphocytes treated 4 h; format: cell-based, human; conditions: probe ILMN_1681492, HTR3A transcript variant 1, low dose naltrexone 10 nM
Procedure: (§1) CD3+ lymphocytes were isolated from the blood of haematologically normal volunteers. Cells placed into […] flasks at a concentration of 1×10^6/ml, and left to equilibrate in an incubator with a humidified atmosphere and 5% CO2 in air at 37° C. […] RNA extraction was performed using Trizol according to standard procedures, before being processed for microarray analysis according to the standard methodologies. Briefly, equal amounts of biotinylated cRNA was hybridised to the Illumina human HT12-v3 arrays for 18 h and subsequently processed according to manufacturer's instructions before scanning on an Illumina BeadArray Reader. The image data were processed using default values in GenomeStudio v2009.1 with imputation of missing data, before loading onto GeneSpring v9.0 for data normalisation and filtering. Data analyses were performed using Excel software, and the ratio of gene expression signals in treated vs. untreated calculated.

[2] = test system: 5-HT receptor 3A (HTR3A), transcript variant 2 mRNA; test: Microarray gene expression of HTR3A transcript variant 2 mRNA in CD3+ lymphocytes treated 4 h; format: cell-based, human
Procedure: as §1

O=C1CC[C@@]2(O)[C@H]3Cc4ccc(O)c5c4[C@@]2(CCN3CC2CC2)[C@H]1O5 [NTX, morphinan-6-one, 17-(cyclopropylmethyl)-4,5-epoxy-3,14-dihydroxy-(5a)]
gene expression signal LDN [1]: 94.00
levels of mRNA for one or more of 5-HT3 receptor proteins ([2]; both high dose (10 uM) and low dose (10 nM) naltrexone, result in words): selectively increase the levels of mRNA
gene expression signal LDN ([2]; probe ILMN_2371079, HTR3A transcript variant 2, low dose naltrexone 10 nM, 4 h, CD3+ lymphocytes): 124.70
gene expression signal NTX ([2]; probe ILMN_2371079, HTR3A transcript variant 2, naltrexone 10 uM, 4 h, CD3+ lymphocytes): 151.75
